Laboratory results: ChEMBL document CHEMBL1159183, “Non-peptide itam mimics as ZAP-70 antagonists” (Bioorg Med Chem Lett, 1997)

Tests used:
[1] = tested on: Jurkat; assay: Cellular activity was measured by an IL-2 luciferase reporter gene assay on a Jurkat human T cell line activated by anti-CD28 and anti-TCR antibodies; format: functional, cell-based
[2] = target: T1, Tyrosine-protein kinase ZAP-70 (Homo sapiens, UniProt P43403); assay: Antagonistic activity against SH2 domain of Zeta-chain (TCR) associated protein kinase, ZAP-70; format: functional
T1 sequence (P43403 whole entry): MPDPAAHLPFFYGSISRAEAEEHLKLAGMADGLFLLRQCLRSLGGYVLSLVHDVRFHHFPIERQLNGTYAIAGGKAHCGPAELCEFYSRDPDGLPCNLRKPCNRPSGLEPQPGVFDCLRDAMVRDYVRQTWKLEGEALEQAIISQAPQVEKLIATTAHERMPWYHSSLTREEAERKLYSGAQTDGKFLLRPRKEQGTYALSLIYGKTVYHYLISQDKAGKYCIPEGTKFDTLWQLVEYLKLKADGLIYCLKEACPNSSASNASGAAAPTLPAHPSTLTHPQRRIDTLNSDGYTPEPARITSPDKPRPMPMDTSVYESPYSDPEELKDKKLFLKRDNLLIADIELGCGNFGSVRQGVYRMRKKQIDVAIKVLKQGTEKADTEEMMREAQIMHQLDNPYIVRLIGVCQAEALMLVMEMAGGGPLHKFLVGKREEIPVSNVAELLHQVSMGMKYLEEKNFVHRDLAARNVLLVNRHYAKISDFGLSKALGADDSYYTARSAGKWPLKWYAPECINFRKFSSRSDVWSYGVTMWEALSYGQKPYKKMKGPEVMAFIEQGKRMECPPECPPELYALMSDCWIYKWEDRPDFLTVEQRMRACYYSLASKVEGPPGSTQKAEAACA

With `CCCCCC(=O)N(Cc1ccc(C(F)(F)P(=O)(O)O)cc1)[C@H]1CC[C@H]2[C@@H]3CCc4cc(OCCC)ccc4[C@H]3CC[C@]12C` the IC50 [1] was 900 nM and the IC50 [2] was 1900 nM.

Compound `CCCCCC(=O)N(Cc1ccc(CP(=O)(O)O)cc1)[C@H]1CC[C@H]2[C@@H]3CCc4cc(OCCC)ccc4[C@H]3CC[C@]12C` has an IC50 [1] of 3600 nM and an IC50 [2] of 3200 nM.

`CCCCCC(=O)N(Cc1ccc(CP(=O)(O)O)cc1)[C@H]1CC[C@H]2[C@@H]3CCc4cc(OCCCOc5ccc6c(c5)CC[C@@H]5[C@@H]6CC[C@]6(C)[C@@H](N(Cc7ccc(CP(=O)(O)O)cc7)C(=O)CCCCC)CC[C@@H]56)ccc4[C@H]3CC[C@]12C` showed an IC50 [1] of 26500 nM and an IC50 [2] of 320 nM.

`CCCCCC(=O)N(Cc1ccc(C(F)(F)P(=O)(O)O)cc1)[C@H]1CC[C@H]2[C@@H]3CCc4cc(OCCCOc5ccc6c(c5)CC[C@@H]5[C@@H]6CC[C@]6(C)[C@@H](N(Cc7ccc(C(F)(F)P(=O)(O)O)cc7)C(=O)CCCCC)CC[C@@H]56)ccc4[C@H]3CC[C@]12C` showed an IC50 [1] of 1900 nM and an IC50 [2] of 250 nM.
